In patent US8394596B1 (priority 2012, dated 2013):
Read-outs that look alike come from different tables or passages of the source.

Columns and labels:
Assay type in all cases: binding
[1] = system: rabbit anti-BMAA antibody
[2] = system: rabbit anti-BMAA antibody; assay: Competitive ELISA for BMAA, second estimate of sensitivity with later-harvested antibody (Example 8); details: antibody harvested after the 6th boost
Description: (§1) The ELISA method: • 1. Add either 100 μL of either a BMAA solution (0, 10, 25, 50, 100, 250, 500, 1000 ng/mL of BMAA) as a calibrator/standard solutions or 100 μL of a test sample into the wells of the test strips (coated with anti-rabbit IgG). Analysis in duplicate or triplicate is recommended. • 2. Add 50 μL of enzyme conjugate solution (BMAA-HRP) to the individual wells successively using a multi-channel pipette or a stepping pipette. • 3. Add 50 μL of antibody solution (rabbit anti-BMAA; for example one made by diluting by a factor of 8000 antiserum from a rabbit immunized according to Example 3 using BMAA-BSA as the immunogen) to the individual wells successively using a multi-channel pipette or a stepping pipette. Cover the wells with parafilm or tape and mix the contents by moving the strip holder in a circular motion on the benchtop for 30 seconds. Be careful not to spill the contents. The foregoing creates a total assay volume of 200 μL. • 4. Incubate the strips for 90 minutes at room temperature. • 5. Remove the covering and decant the contents of the wells into a sink. Wash the strips four times using the diluted washing buffer solution (1×PBS with 0.1% Tween), using at least a volume of 250 μL of washing buffer for each well in each washing step. Remaining buffer in the wells should be removed by patting the inverted plate dry on a stack of paper towels. • 6. Add 150 μL of substrate (color) solution ((TMB), BioFX cat #TMBW-1000 from Surmodics), to the wells. Cover the wells with parafilm or tape and mix the contents by moving the strip holder in a circular motion on the benchtop for 30 seconds. Be careful not to spill the contents. Incubate the strips for 30 minutes at room temperature. Protect the strips from direct sunlight. • 7. Add 100 μL of stop solution (2N HCl) to the wells in the same sequence as for the substrate solution. • 8. Read the absorbance at 450 nm using a microplate ELISA photometer within 15 minutes after the addition of stopping solution using a computer interfaced ELISA reader (Molecular Devices, Sunnyvale, Calif.). BMAA concentration in the unknown samples was estimated by comparison with a concurrently-run standard curve.
The procedure of Example 6 was followed except that (1) the BMAA concentrations tested were 5, 10, 25, 100, 250 and 500 ppb (corresponding to 5, 10, 25, 100, 250 and 500 ng/ml) and (2) an antibody preparation harvested later than that used for Example 6 was used. The antibodies harvested for this example were harvested after the 6th boost.
The sensitivity of the assay was estimated to be 2.5 ppb.

[3] = system: rabbit anti-BMAA antibody; assay: Competitive ELISA for BMAA on anti-rabbit IgG coated plates, estimate of sensitivity (Example 6); details: antibody harvested after fourth booster
Description: Rabbits were immunized with 0.5-1.0 mg of immunizing conjugate per rabbit per injection. The immunizing conjugate was emulsified with Complete Freund's Adjuvant for primary injections and with Incomplete Freund's Adjuvant for booster injections. Three or four booster injections were performed at monthly intervals to raise the desired titers. The rabbits were bled on 12±3 days following each booster injection. Antisera were monitored for titer and analyte specificity by capturing the relevant antibodies on ELISA plates coated with anti-rabbit IgG. The captured antibodies were measured in a subsequent step by incubating the plates with a BMAA-horseradish peroxidase (BMAA-HRP).
Three rabbits were immunized with an immunogen in which EDC was used to link BMAA to BSA according to Example 1. Three rabbits were immunized with an immunogen in which DSS was used to link BMAA to BSA according to Example 2. The rabbit with the highest antibody titer when tested with sera collected 14 days after the fourth booster was a rabbit that had been immunized with an immunogen in which DSS was used to link BMAA to BSA according to Example 2. Antibodies from that rabbit, harvested 14 days after the fourth booster were used to generate the data obtained from Example 6 below. Antibodies from that rabbit, harvested 14 days after the fourth booster were used to generate the data obtained from Example 8 below.
as §1
The procedure of Example 5 was followed using known amounts of BMAA. (The antibody preparation was that specified in Example 3 as having been used for Example 6). “Concentration (ng/ml)” refers to the concentration of the BMAA in the 100 μL of calibrator/standard solution referred to in step (1) of Example 5. […]

[4] = relative to BMAA 50% inhibition at 170 ng/ml, 0.2% compounds tested up to 500 ug/mL, 0.1% up to 1 mg/ml

Cl.NCCC(N)C(=O)O (racemic) [D,L-2,4-Diaminobutyric acid hydrochloride]
Cross-reactivity [1, 4]: 0.1%

CNC[C@H](N)C(=O)O [BMAA, β-N-methylamino-L-alanine]
B/Bo (%) ([2]; BMAA 5 ng/ml): 93% | B/Bo (%) ([2]; BMAA 10 ng/ml): 88% | B/Bo (%) ([2]; BMAA 25 ng/ml): 77% | B/Bo (%) ([2]; BMAA 100 ng/ml): 49% | B/Bo (%) ([2]; BMAA 250 ng/ml): 30% | B/Bo (%) ([2]; BMAA 500 ng/ml): 19% | sensitivity of the assay: concentration of BMAA needed to reduce B/Bo by 5 percent ([2]; Example 8): 2.5 ppb | B/Bo (%) ([3]; BMAA 10 ng/ml in 100 μL standard solution): 93% | B/Bo (%) ([3]; BMAA 25 ng/ml in 100 μL standard solution): 85% | B/Bo (%) ([3]; BMAA 50 ng/ml in 100 μL standard solution): 77% | B/Bo (%) ([3]; BMAA 100 ng/ml in 100 μL standard solution): 64% | B/Bo (%) ([3]; BMAA 250 ng/ml in 100 μL standard solution): 44% | B/Bo (%) ([3]; BMAA 500 ng/ml in 100 μL standard solution): 29% | B/Bo (%) ([3]; BMAA 1000 ng/ml in 100 μL standard solution): 18% | sensitivity of the assay: concentration of BMAA needed to reduce B/Bo by 5 percent ([3]; Example 6): 7.5 ppb | concentration of BMAA causing 50% inhibition in the assay ([1]; concentration in the 100 μL standard solution): 170 nanograms/ml | Cross-reactivity [1, 4]: 100%

N[C@@H](CC(=O)O)C(=O)O [L-Aspartic acid]
Cross-reactivity [1]: 0.2%

Cl.N[C@@H](CS)C(=O)O [L-Cysteine hydrochloride]
Cross-reactivity [1, 4]: 0.2%

N[C@@H](CCC(=O)O)C(=O)O [L-Glutamic acid]
Cross-reactivity [1, 4]: 0.2%

NCCCC(=O)O [γ-Aminobutyric acid]
Cross-reactivity [1, 4]: 0.2%
